Like-named read-outs stand apart in the source and are kept apart here.

The subject of this experiment is H.Ep-2 cell line. Briefly: Cytotoxicity in vitro, cell survival by trypan blue exclusion. The note with it: Homo sapiens, read-out: IC50 (dose required to give 50% cell survival). It counts as cell-based. Here is the method:
Cytotoxicity in vitro. The human epidermoid carcinoma cell line H.Ep-2 was originally obtained from a metastatic nodule in the neck of a patient with a primary tumour of the larynx. it was established in tissue culture after two generations in X-irradiated, cortisone-treated rats. Immunocytochemistry has shown the cells to bind the H17E2 antibody, but not HMFGl, which was used as a negative control in these studies. Cells were cultured in RPMI 1640 tissue culture medium supplemented with 10% foetal calf serum (Gibco Ltd, Paisley, Scotland). For cell survival experiments, after harvesting with 0.02% EDTA, 5×10^5 cells were plated in quadruplicate into 25-cm^2 Falcon flasks (Becton Dickinson, N.J., USA). Twenty-four hours later the cytotoxic agent was added (either amygdalin alone, β-glucosidase alone, amygdalin plus β-glucosidase, potassium cyanide alone, amygdalin plus H17E2β-glucosidase conjugate or amygdalin plus HMFGl-β-glucosidase conjugate). After 24 h exposure, the medium containing the drug was replaced with fresh medium and the cells allowed to grow for a further 24 h before counting by haemacytometry, using trypan blue exclusion as the criterion for cell integrity.

`N#C[C@H](O[C@@H]1O[C@H](CO[C@@H]2O[C@H](CO)[C@@H](O)[C@H](O)[C@H]2O)[C@@H](O)[C@H](O)[C@H]1O)c1ccccc1` [amygdalin, D-mandelonitrile-β-D-glucosido-6-β-D-glycoside]: the IC50 reads like this: (HEp-2, in the presence of 0.35 μM β-glucosidase) 600 ± 300 µM; (HEp-2, in the presence of 3.5 μM β-glucosidase) 500 ± 200 µM.

For orientation: IC50 means the midpoint of a concentration-inhibition curve.

Source of the values: US20020114813A1, “Compounds” (priority 1990, published 2002).
